Experimental findings from ChEMBL document CHEMBL6182875, “Cinerols L-R, Anti-inflammatory Meroterpenoids from the Marine Sponge Dysidea cinerea” (J Nat Prod, 2025) are described below.

Data set [1] deals with RAW264.7. Kind of data set: Cytotoxicity against mouse RAW264.7 cells assessed as effect on cell viability at 2.5 to 20 uM measured after 24 hrs by CCK8 assay. The data set is classed as toxicity, cell-based. Particulars: raw264.7, 24 h, dose 2.5-20 µM. A general note: Tetrazolium dyes change colour on reduction, which living cells bring about.
Data set [2] concerns RAW264.7. Kind of data set: Antiinflammatory activity against mouse RAW264.7 cells assessed as inhibition of LPS-induced NO production pretreated for 2 hrs followed by LPS stimulation for 24 hrs by ELISA. In kind it is functional, cell-based. The following applies: dose 2.5-20 µM, time 26.0 hrs. A general note: In an ELISA, binding on a coated surface is turned into a signal by an enzyme label.

Data set [3] deals with RAW264.7. Kind of data set: Inhibition of MAPK signaling pathway in mouse RAW264.7 cells assessed as decrease in JNK phosphorylation at 2.5 to 5 uM pretreated for 1 hr followed by LPS stimulation for 25 mins by western blot analysis. The data set is classed as cell-based. Particulars: dose 2.5-5 µM, time 85.0 min. A general note: Immunoblotting shows a protein as a band on a membrane.

The test system of data set [4] is RAW264.7. Kind of data set: Antiinflammatory activity against mouse RAW264.7 cells assessed as inhibition of LPS-induced TNF-alpha production pretreated for 2 hrs followed by LPS stimulation for 24 hrs by ELISA. The data set is classed as functional, cell-based. The following applies: dose 2.5-20 µM, time 26.0 hrs.
The test system of data set [5] is RAW264.7. Kind of data set: Inhibition of MAPK signaling pathway in mouse RAW264.7 cells assessed as decrease in p38 phosphorylation at 2.5 to 5 uM pretreated for 1 hr followed by LPS stimulation for 25 mins by western blot analysis. In kind it is cell-based. The following applies: dose 2.5-5 µM, time 85.0 min.
For data set [6], the system named is RAW264.7. Kind of data set: Inhibition of NF-kappaB signaling pathway in mouse RAW264.7 cells assessed as decrease in NF-kappaB p65 phosphorylation at Ser536 residue at 2.5 to 5 uM pretreated for 1 hr followed by LPS stimulation for 25 mins by western blot analysis. Particulars: dose 2.5-5 µM, time 85.0 min. In kind it is cell-based.
The subject of data set [7] is RAW264.7. Kind of data set: Inhibition of MAPK signaling pathway in mouse RAW264.7 cells assessed as decrease in ERK1/2 phosphorylation at 2.5 to 5 uM pretreated for 1 hr followed by LPS stimulation for 25 mins by western blot analysis. The data set is classed as cell-based. Particulars: dose 2.5-5 µM, time 85.0 min.
Data set [8] concerns RAW264.7. Kind of data set: Antiinflammatory activity against mouse RAW264.7 cells assessed as inhibition of LPS-induced PGE2 production pretreated for 2 hrs followed by LPS stimulation for 24 hrs by ELISA. The data set is classed as functional, cell-based. Particulars: dose 2.5-20 µM, time 26.0 hrs.
For data set [9], the system named is RAW264.7. Kind of data set: Antiinflammatory activity against mouse RAW264.7 cells assessed as inhibition of LPS-induced COX-2 protein expression at 2.5 to 5 uM pretreated for 1 hr followed by LPS stimulation for 25 mins by western blot analysis. The data set is classed as functional, cell-based. Particulars: dose 2.5-5 µM, time 85.0 min.
For data set [10], the system named is RAW264.7. Kind of data set: Antiinflammatory activity against mouse RAW264.7 cells assessed as inhibition of LPS-induced IL-6 production pretreated for 2 hrs followed by LPS stimulation for 24 hrs by ELISA. The data set is classed as functional, cell-based. The following applies: dose 2.5-20 µM, time 26.0 hrs.
For data set [11], the system named is RAW264.7. Kind of data set: Inhibition of NF-kappaB signaling pathway in mouse RAW264.7 cells assessed as decrease in IkappaBalpha phosphorylation at Ser32 residue at 2.5 to 5 uM pretreated for 1 hr followed by LPS stimulation for 25 mins by western blot analysis. The data set is classed as cell-based. The following applies: dose 2.5-5 µM, time 85.0 min.

Active and inactive are the calls of the source. The calls are words filed in the database; no cut-off is given here.

As to `CC1=CCC[C@H]2[C@](C)(CC3=CC(=O)C=C(N(C)CCO)C3=O)[C@@H](C)CC[C@]12C`, the Activity entry with RAW264.7 [1] is listed as “Non-toxic”.

With `C[C@H]1CC[C@@]2(C)[C@@H](CC[C@@H](O)[C@@]2(C)O)[C@]1(C)Cc1cc(O)cc2nc3n(c12)CCC3`, in the data set with RAW264.7 [1], the Activity entry was “Non-toxic”.

With `CC1=CCC[C@H]2[C@](C)(CC3=CC(=O)C=C(NCCO)C3=O)[C@@H](C)CC[C@]12C`, in the data set on RAW264.7 [1], the Activity entry is “Non-toxic”.

On to `CC1=CCC[C@H]2[C@](C)(CC3=CC(=O)C(NCCO)=CC3=O)[C@@H](C)CC[C@]12C`, for which the Activity result with RAW264.7 [1] is given as “Non-toxic”.

Consider `CC1=CCC[C@H]2[C@](C)(Cc3cc4c(cc3O)[n+](CCS(=O)(=O)[O-])c3n4CCC3)[C@@H](C)CC[C@]12C`, for which, in the data set with RAW264.7 [1], the Activity result is recorded as “Non-toxic”.

As to `CC(=O)c1cc(O)cc(C[C@]2(C)[C@@H](C)CC[C@]3(C)C(C)=CCC[C@@H]23)c1O`, the Activity entry in the data set on RAW264.7 [1] was “Non-toxic”.

In the case of `C=C1CCC[C@H]2[C@](C)(Cc3cc(O)cc(C(C)=O)c3O)[C@@H](C)CC[C@]12C`, the Activity entry with RAW264.7 [1] was “Non-toxic”; with RAW264.7 [2], “Dose-dependent-effect”; with RAW264.7 [4], “Dose-dependent-effect”; with RAW264.7 [8], “Dose-dependent-effect”; in the data set with RAW264.7 [10], “Dose-dependent-effect”. Moreover, the inhibition entry with RAW264.7 [3], in the data set on RAW264.7 [5], in the data set on RAW264.7 [6], in the data set on RAW264.7 [7] and with RAW264.7 [11] was “Active” throughout. In addition, in the data set on RAW264.7 [9], the outcome was Active.
